# According to US20040082600A1, “Pharmaceutical composition” (priority 2001, published 2004):
# Like-named read-outs stand apart in the source and are kept apart here.
# Test: Solubility in aqueous media
# Type: physicochemical
# From the text: The compounds mentioned at the outset and pharmaceutically usable salts thereof, such as, for example, ethanolamine salts thereof, have low solubilities in aqueous media. […] These poor solubilities have the consequence that the compound can only be taken up slowly and to an inadequate extent by the body. This is associated with poor bioavailability and a slow increase in the concentration in the blood.
structure (smiles),measurement,setting,value
"COc1ccc(CNc2nc(C3CCC(C(=O)O)CC3)nc3sc4ccccc4c23)cc1Cl (centres unmarked) [4-[4-(3-Chloro-4-methoxybenzylamino)benzo[4,5]thieno[2,3-d]pyrimidin-2-yl]cyclohexanecarboxylic acid]",solubility,"aqueous buffer, phosphate buffer (pH 1.0), read-out: solubility",0.022 µg/mL
same,solubility,"aqueous buffer, phosphate buffer (pH 6), read-out: solubility",0.0016 µg/mL
same,solubility,"aqueous buffer, phosphate buffer (pH 7.0), read-out: solubility",0.019 µg/mL
same,solubility,synthetic gastric juice,1 mg/100 ml
same,solubility,synthetic intestinal juice,6 mg/100 ml
